By bioavailability is commonly meant dose-corrected exposure relative to a reference, in per cent.

Consider five compounds from US4440740A, “α-Keto aldehydes as enhancing agents of gastro-intestinal drug absorption” (Merck & Co., Inc., priority 1982, dated 1984).

A short description of data set [1]: rectal absorption of Ara-C with methylglyoxal or phenylglyoxal. The conditions noted are these: in vivo. The source says:
Effect of methylglyoxal and phenylglyoxal on rectal absorption of Ara-C, 4-Amino-1β-D-Arabinofuranosyl-2(1H)-pyrimidinone (Cytarabine), an antineoplastic, antiviral agent
Ara-C present at 1% w/v concentration

Data set [2] can be described thus: rectal absorption of cyclic hexapeptide somatostatin analog with phenylglyoxal. The conditions noted are these: rat, in vivo, 0.4 mg, pH 5, rectal, 0.4 mg peptide, 250 μl, read-out: Percent Bioavailability. The procedure: (§1) Effect of Phenylglyoxal on Rectal and Duodenal Absorption of a Cyclic Hexapeptide Somatostatin Analog Specifically Cyclo-(N-Me-Ala-Tyr-D-Trp-Lys-Val-Phe)
(§2) 250 μl volume, pH 5/animal
(§3) Cyclo-(N--Me--Ala--Tyr--D-Trp--Lvs--Val--Phe)
microenema 250 μl at 2.5 cm intrarectal depth

The nature of data set [3]: duodenal absorption of cyclic hexapeptide somatostatin analog with phenylglyoxal. The conditions noted are these: rat, in vivo, 0.4 mg, pH 5, duodenal, 0.4 mg peptide, 250 μl, read-out: Percent Bioavailability. How it is done: as §1, §2, §3
duodenal 250 μl injection 1 cm distal to pylorus

Data set [4] is described as follows: rectal drug bioavailability in rats, aqueous microenema with α-keto aldehyde absorption enhancer, versus intravenous administration. The data set is classed as in vivo. The settings on record: 10 mg/kg. The procedure:
Aqueous microenemas were administered to rats at an intrarectal depth of 2.5 cm containing 10 mg/kg target drug and 20 mg/kg α-keto aldehyde absorption enhancer. Serum samples were collected and drug bioavailability determined versus intravenous administration of the target compound. Glyoxylic acid, methylglyoxal and phenylglyoxal were tested as representative compounds in the α-keto aldehyde series. Data has been oriented for rectal delivery of two antibiotics (shown below).

Regarding `Nc1ccn([C@@H]2O[C@H](CO)[C@@H](O)[C@@H]2O)c(=O)n1` [Ara-C, 4-Amino-1β-D-Arabinofuranosyl-2(1H)-pyrimidinone, reference compound], the bioavailability in data set [1] (rectal, Ara-C 1% w/v, adjuvant: none) was 13.1%. Besides, in data set [1] (rectal, Ara-C 1% w/v, adjuvant: none, 0-90 min, read-out: 0 min-90 min (quantity head is drawing 2) of Ara-C (converted)), the AUC at 1.5 h is 1250 ng·h/mL.
For `CC(C)[C@@H]1NC(=O)[C@H](CCCCN)NC(=O)[C@@H](Cc2c[nH]c3ccccc23)NC(=O)[C@H](Cc2ccc(O)cc2)NC(=O)[C@H](C)N(C)C(=O)[C@H](Cc2ccccc2)NC1=O` [Cyclo-(N-Me-Ala-Tyr-D-Trp-Lys-Val-Phe)], the bioavailability in data set [2] (phenylglyoxal 0 mg/ml) came out at 7%; in data set [2] (phenylglyoxal 25 mg/ml), 34%; in data set [3] (phenylglyoxal 0 mg/ml) it was 1%; in data set [3] (phenylglyoxal 25 mg/ml) it was 20%.
As to `O=CC(=O)c1ccccc1` [Phenylglyoxal, phenyl glyoxal], the “% Bioavailability of Ara-C” value in data set [1] turned out to be 70.5%. Besides, in data set [1] (90 min), the “0 min-90 min (quantity head is drawing 2) of Ara-C” value is 798 ± 71.0 µg·min/mL.
Turning to `CO[C@@]1(NC(=O)Cc2cccs2)C(=O)N2C(C(=O)O)=C(COC(N)=O)CS[C@@H]21` [sodium cefoxitin, (6R-cis)-3-[[(Aminocarbonyloxy]methyl]-7-methoxy-8-oxo-7-[(2-thienylacetyl))amino]-5-thia-1-azabicyclo-[4.2.0]oct-2-ene-2-carboxylic acid], the bioavailability in data set [4] (rat, in vivo) worked out at 5%.
As to gentamicin sulfate, the “% bioavailability, control formulations” value in data set [4] (rectal, control formulation without keto aldehyde adjuvant, mean, 3 animals) was 5%.
